Laboratory results: PMC5011342, “A high throughput drug screening assay to identify compounds that promote oligodendrocyte differentiation using acutely dissociated and purified oligodendrocyte precursor cells” (BMC Research Notes, 2016)
Read-outs that look alike come from different tables or passages of the source.

Tests used:
expanded OPCs = experiment: cells; conditions: for viability at 0.1 µM / viability at 1 µM / viability at 10 µM: Rattus norvegicus, 72 h
How it was run: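 Expanded OPCs seeded at 10,000 cells/well in differentiation media, then exposed to NCC library compounds at 10, 1 and 0.1 µM (quadruplicate, 0.1% DMSO) for three days. Viability read as alamarBlue fluorescence (560/590 nm) after 4 h at 37 °C; tunicamycin 5 ng/ml served as toxicity control.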

[1] = test system: acutely dissociated and purified rat OPCs; experiment: Acute OL differentiation assay (MBP expression/cell, immunofluorescent image quantification); assay type: cell-based; conditions: sheet "All OLga data"; for activation at 0.4 µM / activation at 2 µM / activation at 10 µM: Rattus norvegicus; for activation at 0.4 µM: 0.4 uM test compound, read-out: OL differentiation, 0.4 uM (% Quet)
How it was run: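 Oligodendrocyte precursor cells were enriched from P6-P7 Sprague–Dawley rat brains by immunopanning (RAN-2 and GalC depletion, O4 selection), plated at 5000 cells/well in serum-free, mitogen-free differentiation media on PDL/laminin 96-well view plates, centrifuged at 200×g, and pre-incubated 1–2 h before test compounds were added in quadruplicate. On DIV4, cells were fixed, stained for MBP and DAPI, imaged automatically, and MBP expression per cell was quantified.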

[2] = read-out: 0.1 µM (% DMSO), alamarBlue viability of expanded OPCs, compound at 0.1 µM, sheet All Tox data
[3] = read-out: 1 µM (% DMSO), alamarBlue viability of expanded OPCs, compound at 1 µM, sheet All Tox data
[4] = read-out: 10 µM (% DMSO), alamarBlue viability of expanded OPCs, compound at 10 µM, sheet All Tox data
[5] = 2 uM test compound, relative to quetiapine, read-out: OL differentiation, 2 uM (% Quet)
[6] = read-out: 0.1 µM (% DMSO), alamarBlue viability, NCC library compound at 0.1 µM, sheet "All Tox data"
[7] = read-out: 1 µM (% DMSO), alamarBlue viability, NCC library compound at 1 µM, sheet "All Tox data"
[8] = read-out: 10 µM (% DMSO), alamarBlue viability, NCC library compound at 10 µM, sheet "All Tox data"
[9] = test compound at 2 uM, NCC library screen, relative to quetiapine, read-out: 2 uM (% Quet)
[10] = test compound at 10 uM, NCC library screen, relative to quetiapine, read-out: 10 uM (% Quet)
[11] = alamarBlue viability of expanded OPCs, compound at 0.1 µM, relative to DMSO control
[12] = alamarBlue viability of expanded OPCs, compound at 1 µM, relative to DMSO control
[13] = alamarBlue viability of expanded OPCs, compound at 10 µM, relative to DMSO control
[14] = test compound at 2 uM, MBP expression relative to quetiapine, NCC library screen, read-out: 2 uM (% Quet)
[15] = test compound at 10 uM, MBP expression relative to quetiapine, NCC library screen, read-out: 10 uM (% Quet)

Compound	activation at 2 µM [1, 5] [%]	viability at 0.1 µM (expanded OPCs; [6]) [%]	viability at 1 µM (expanded OPCs; [7]) [%]	viability at 10 µM (expanded OPCs; [8]) [%]	activation at 2 µM [1, 9] [%]	activation at 10 µM [1, 10] [%]	other results
CN1CCN(c2nc3cc(C(F)(F)F)ccc3n3cccc23)CC1.O=C(O)/C=C\C(=O)O.O=C(O)/C=C\C(=O)O [CGS-12066B]							0.1 µM (% DMSO) (expanded OPCs; alamarBlue viability, NCC library compound at 0.1 µM, sheet "All Tox data"): 78.7 % DMSO; 1 µM (% DMSO) (expanded OPCs; alamarBlue viability, NCC library compound at 1 µM, sheet "All Tox data"): 44.5 % DMSO; 10 µM (% DMSO) (expanded OPCs; alamarBlue viability, NCC library compound at 10 µM, sheet "All Tox data"): 16.9 % DMSO; 0.08 uM (% Quet) ([1]; test compound at 0.08 uM, NCC library screen, relative to quetiapine): 28.1 % Quet; 0.4 uM (% Quet) ([1]; test compound at 0.4 uM, NCC library screen, relative to quetiapine): -50.5 % Quet
C=C1/C(=C\C=C2/CCC[C@]3(C)[C@@H]([C@H](C)/C=C/[C@@H](O)C4CC4)CC[C@@H]23)C[C@@H](O)C[C@@H]1O [Calcipotriene]	-7.8						viability at 0.1 µM (expanded OPCs; [2]): 98.3%; viability at 1 µM (expanded OPCs; [3]): 89%; viability at 10 µM (expanded OPCs; [4]): 11.5%; activation at 0.4 µM ([1]; relative to quetiapine): 14.8%
C=C1/C(=C\C=C2/CCC[C@]3(C)[C@@H]([C@H](C)CCCC(C)(C)O)CC[C@@H]23)C[C@@H](O)C[C@@H]1O [Calcitriol]	30.3	99.4	108	11			activation at 0.4 µM ([1]; relative to quetiapine): 8.9%
C[C@H](CS)C(=O)N1CCC[C@H]1C(=O)O [Captopril]		90.7	93.2	99.1	8	8.4	
NC(=O)N1c2ccccc2C=Cc2ccccc21 [Carbamazepine]							0.1 µM (% DMSO) (expanded OPCs; [11]): 107.0 % DMSO; 1 µM (% DMSO) (expanded OPCs; [12]): 99.7 % DMSO; 10 µM (% DMSO) (expanded OPCs; [13]): 103.7 % DMSO; activation at 2 µM [1, 14]: -5.2%; activation at 10 µM [1, 15]: -13.7%
C[C@@](Cc1ccc(O)c(O)c1)(NN)C(=O)O [Carbidopa]							0.1 µM (% DMSO) (expanded OPCs; [11]): 108.9 % DMSO; 1 µM (% DMSO) (expanded OPCs; [12]): 101.2 % DMSO; 10 µM (% DMSO) (expanded OPCs; [13]): 82.3 % DMSO; activation at 2 µM [1, 14]: -35.6%; activation at 10 µM [1, 15]: -121%
CN(C)CCOC(c1ccc(Cl)cc1)c1ccccn1 (stereo not drawn) [Carbinoxamine]		92.8	73.8	57.6	7.4	-28.8	
CCCC(C)(COC(N)=O)COC(=O)NC(C)C (stereo not drawn) [Carisoprodol]							0.1 µM (% DMSO) (expanded OPCs; [11]): 92.1 % DMSO; 1 µM (% DMSO) (expanded OPCs; [12]): 90.4 % DMSO; 10 µM (% DMSO) (expanded OPCs; [13]): 89.3 % DMSO; activation at 2 µM [1, 14]: -33%; activation at 10 µM [1, 15]: -33%
CCCCCCNC(=O)n1cc(F)c(=O)[nH]c1=O [Carmofur]	-84.8						viability at 0.1 µM (expanded OPCs; [2]): 90.5%; viability at 1 µM (expanded OPCs; [3]): 76.1%; viability at 10 µM (expanded OPCs; [4]): 14.6%; activation at 0.4 µM ([1]; relative to quetiapine): -28.7%
COc1ccccc1OCCNCC(O)COc1cccc2[nH]c3ccccc3c12 (stereo not drawn) [Carvedilol]	-95.9						viability at 0.1 µM (expanded OPCs; [2]): 101%; viability at 1 µM (expanded OPCs; [3]): 54.5%; viability at 10 µM (expanded OPCs; [4]): 12%; activation at 0.4 µM ([1]; relative to quetiapine): -16.1%
N[C@@H](C(=O)N[C@@H]1C(=O)N2C(C(=O)O)=C(Cl)CS[C@H]12)c1ccccc1 [Cefaclor]		90.3	94.6	106	-10.8	27.4	
N[C@@H](C(=O)N[C@@H]1C(=O)N2C(C(=O)O)=C(CSc3c[nH]nn3)CS[C@H]12)c1ccc(O)cc1 [Cefatrizine]	11.1						viability at 0.1 µM (expanded OPCs; [2]): 99.1%; viability at 1 µM (expanded OPCs; [3]): 95.1%; viability at 10 µM (expanded OPCs; [4]): 104%; activation at 10 µM ([1]; 10 uM test compound, relative to quetiapine, read-out: OL differentiation, 10 uM (% Quet)): -10.4%
Cc1nnc(SCC2=C(C(=O)O)N3C(=O)[C@@H](NC(=O)Cn4cnnn4)[C@H]3SC2)s1 [Cefazolin]		95.1	92.5	96.9	6.4	0.95	
C=CC1=C(C(=O)O)N2C(=O)[C@@H](NC(=O)/C(=N\O)c3csc(N)n3)[C@H]2SC1 [Cefdinir]		86.5	90.2	84.8	13.5	23	
C=CC1=C(C(=O)O)N2C(=O)[C@@H](NC(=O)/C(=N\OCC(=O)O)c3csc(N)n3)[C@H]2SC1 [Cefixime]		82.1	68.5	67.3	6.6	63.5	
